According to ChEMBL document CHEMBL5523759, “Discovery of Novel HDAC3 Inhibitors with PD-L1 Downregulating/Degrading and Antitumor Immune Effects” (J Med Chem, 2024):
Each block holds one compound with its values, some of them ahead of it. Active and inactive are the calls of the source. No cut-off for these calls is given here.

What was measured:
[1] = molecular target: T1, Histone deacetylase 3 (Mus musculus) (UniProt O88895); assay: Inhibition of HDAC3 in mouse B16-F10 cells assessed as upregulation of acetylated H3 level at 2 uM measured for 24 hrs by Western blot analysis; type: cell-based
T1 sequence (whole entry): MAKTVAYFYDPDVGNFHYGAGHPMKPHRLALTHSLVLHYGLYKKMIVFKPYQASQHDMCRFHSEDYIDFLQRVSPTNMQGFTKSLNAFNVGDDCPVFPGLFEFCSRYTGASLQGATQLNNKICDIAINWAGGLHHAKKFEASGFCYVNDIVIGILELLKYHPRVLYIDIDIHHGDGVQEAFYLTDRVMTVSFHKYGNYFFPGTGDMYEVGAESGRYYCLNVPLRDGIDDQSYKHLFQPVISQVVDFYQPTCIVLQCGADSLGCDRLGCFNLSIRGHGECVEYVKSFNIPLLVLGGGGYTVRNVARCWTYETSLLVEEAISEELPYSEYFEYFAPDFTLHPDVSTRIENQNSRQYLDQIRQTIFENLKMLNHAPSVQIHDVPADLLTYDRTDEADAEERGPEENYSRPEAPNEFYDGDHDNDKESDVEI

[2] = Metabolic stability in mouse liver microsome assessed as parent compound remaining measured immediately; type: ADME; settings: liver microsomes, read-out: Stability
[3] = Metabolic stability in mouse liver microsome assessed as parent compound remaining measured at 5 mins; type: ADME; settings: liver microsomes, read-out: Stability
[4] = MRT (0 to t) in Sprague-Dawley rat at 20 mg/kg, po measured up to 12 hrs by LC-MS/MS analysis; type: ADME, organism-based; settings: in vivo
[5] = Metabolic stability in rat liver microsome assessed as intrinsic clearance; type: ADME; settings: liver microsomes, read-out: CLH
[6] = Metabolic stability in rat liver microsome assessed as half life; type: ADME; settings: liver microsomes
[7] = molecular target: T1, Histone deacetylase 3 (Mus musculus); assay: Inhibition of HDAC3 in mouse B16-F10 cells assessed as upregulation of acetylated H3 level at 1 to 2 uM measured for 24 hrs by Western blot analysis; type: cell-based; settings: dose 1-2 µM
[8] = Toxicity in C57BL/6 mouse implanted with mouse B16-F10 cells assessed as spleen damage at 25 mg/kg, po administered for 9 days by H and E staining based analysis; type: organism-based; settings: in vivo, 216 h, time 9 day
[9] = Apparent volume of distribution in Sprague-Dawley rat at 20 mg/kg, po measured up to 12 hrs by LC-MS/MS analysis; type: ADME, organism-based; settings: in vivo
[10] = Toxicity in C57BL/6 mouse implanted with mouse B16-F10 cells assessed as heart damage at 25 mg/kg, po administered for 9 days by H and E staining based analysis; type: organism-based; settings: in vivo, 216 h, time 9 day
[11] = AUC (0 to infinity) in Sprague-Dawley rat at 20 mg/kg, po measured up to 12 hrs by LC-MS/MS analysis; type: ADME, organism-based; settings: in vivo
B16-F10 [12] = assay: Antitumor activity against mouse B16-F10 cells implanted in C57BL/6 mouse model assessed as […] in Ac-H3 expression in tumor at 25 mg/kg, po administered for 9 days by immunofluorescence analysis; type: functional, organism-based; settings: time 9.0 day
[13] = AUC (0 to t) in Sprague-Dawley rat at 20 mg/kg, po measured up to 12 hrs by LC-MS/MS analysis; type: ADME, organism-based; settings: in vivo
B16-F10 [14] = assay: Antitumor activity against mouse B16-F10 cells implanted in C57BL/6 mouse model assessed as upregulation of Ac-H3 expression at 25 mg/kg, po administered for 9 days by Western blot analysis; type: functional, organism-based; settings: time 9.0 day
[15] = MRT (0 to t) in Sprague-Dawley rat at 2 mg/kg, iv measured up to 12 hrs by LC-MS/MS analysis; type: ADME, organism-based; settings: in vivo
[16] = Half life in Sprague-Dawley rat at 20 mg/kg, po measured up to 12 hrs by LC-MS/MS analysis; type: ADME, organism-based; settings: in vivo
[17] = Half life in Sprague-Dawley rat at 2 mg/kg, iv measured up to 12 hrs by LC-MS/MS analysis; type: ADME, organism-based; settings: in vivo
[18] = molecular target: Programmed cell death 1 ligand 1 (Mus musculus, UniProt Q9EP73); assay: Induction of PD-L1 degradation in mouse B16-F10 cells measured for 24 hrs by Western blot analysis; type: cell-based
Chain of Programmed cell death 1 ligand 1 (Q9EP73 whole entry): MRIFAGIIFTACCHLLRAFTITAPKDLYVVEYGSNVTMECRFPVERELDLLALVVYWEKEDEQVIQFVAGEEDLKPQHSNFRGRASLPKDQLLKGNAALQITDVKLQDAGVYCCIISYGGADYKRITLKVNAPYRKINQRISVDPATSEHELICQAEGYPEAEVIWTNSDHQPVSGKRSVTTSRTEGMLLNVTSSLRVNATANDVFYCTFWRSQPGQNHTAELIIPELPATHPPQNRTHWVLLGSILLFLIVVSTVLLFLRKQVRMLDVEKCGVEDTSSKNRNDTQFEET

[19] = Metabolic stability in mouse liver microsome assessed as parent compound remaining measured at 15 mins; type: ADME; settings: liver microsomes, read-out: Stability
[20] = molecular target: Programmed cell death 1 ligand 1 (Mus musculus) (UniProt Q9EP73); assay: Induction of PD-L1 degradation in mouse B16-F10 cells 0.5 to 10 uM measured for 4 hrs in presence of MG132 by Western blot analysis; type: cell-based; settings: dose 0.5-10 µM
Chain of Programmed cell death 1 ligand 1 (Mus musculus) (Q9EP73 whole entry): as above

- inhibition [1]: Active
Compound: Nc1ccccc1NC(=O)c1ccc(-c2ncc(CNc3ccccc3)s2)cc1

Compound: CCCNNC(=O)c1ccc(CNC(=O)c2ncc(CNc3ccccc3)s2)cc1
- remaining at 0 min [2]: 100%
- remaining at 5 min [3]: 70.4%
- MRT last at 12 h [4]: 191 min
- CLint scaled [5]: 107 mL/min/kg
- half-life [6]: 23.7 min
- inhibition [7]: Active
- Activity [8]: Non-Toxic
- Vz [9]: 34.45 L/kg
- Activity [10]: Non-Toxic
- AUC(0-inf) [11]: 3030 ng·h/mL
- Activity (B16-F10 [12]): Active
- AUC(0-t) at 12 h [13]: 2740 ng·h/mL
- Activity (B16-F10 [14]): Active
- MRT last at 12 h [15]: 31.2 min
- half-life [16]: 216 min
- half-life [17]: 24 min
- DC50 [18]: 5.7 µM
- remaining at 0.25 h [19]: 31.6%
- Activity [20]: Active
